Assay results published in PubChem BioAssay (NCI).
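In this assay, cells in 96-well plates receive the compound at five concentrations for 48 hours. Endpoints are linearly interpolated between the surrounding concentrations. TGI: concentration producing complete growth inhibition.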

What was measured:
Assay in all cases: NCI-60 cell line screen, 48 h
U251 CNS = test system: U251 CNS
MDA-N = test system: MDA-N
HS 578T breast = test system: HS 578T breast
MCF7 breast = test system: MCF7 breast
A549 NSCLC = test system: A549 NSCLC
M14 melanoma = test system: M14 melanoma
SK-MEL-28 melanoma = test system: SK-MEL-28 melanoma
CCRF-CEM leukemia = test system: CCRF-CEM leukemia
RXF 393 renal = test system: RXF 393 renal
T-47D breast = test system: T-47D breast

COc1cc(C2CC(C)(N3CCOCC3)Oc3cc4c(cc32)OCO4)cc(OC)c1OC (centres undefined)
TGI (U251 CNS): > 100 µM
TGI (MDA-N): 0.439 µM
TGI (HS 578T breast): > 56.2 µM
TGI (MCF7 breast): > 100 µM
TGI (A549 NSCLC): > 100 µM
TGI (M14 melanoma): > 100 µM

C=C1CC[C@@]2(C)[C@@H]([C@@H]1C)[C@H]1CC[C@@H]3[C@@]4(C)CC[C@H](O)C(C)(C)[C@@H]4CC[C@@]3(C)[C@]1(C)C[C@@H]2O
TGI (SK-MEL-28 melanoma): 20.3 µM
TGI (MDA-N): > 51.5 µM
TGI (HS 578T breast): 7.29 µM
TGI (MCF7 breast): 9.23 µM
TGI (CCRF-CEM leukemia): > 100 µM
TGI (A549 NSCLC): 4.65 µM
TGI (RXF 393 renal): 4.04 µM
TGI (T-47D breast): 8.76 µM
TGI (M14 melanoma): 32.7 µM

O=[N+]([O-])c1ccc(CSc2nn(Cc3ccc([N+](=O)[O-])cc3)cc3ncnc2-3)cc1
TGI (SK-MEL-28 melanoma): 84.5 µM
TGI (MDA-N): > 100 µM
TGI (MCF7 breast): > 100 µM
TGI (A549 NSCLC): > 100 µM
TGI (T-47D breast): > 100 µM
TGI (M14 melanoma): > 100 µM

COc1ccc2[nH]c3cc4c(=O)c5cc(OC)ccc5[nH]c4cc3c(=O)c2c1
TGI (U251 CNS): > 100 µM
TGI (SK-MEL-28 melanoma): > 100 µM
TGI (MDA-N): > 100 µM
TGI (HS 578T breast): > 100 µM
TGI (MCF7 breast): > 100 µM
TGI (A549 NSCLC): > 100 µM
TGI (RXF 393 renal): > 100 µM
TGI (T-47D breast): > 100 µM
TGI (M14 melanoma): > 100 µM

Cc1ccc(S(=O)(=O)N(CC(O)COc2ccccc2)c2c(F)c(F)cc(F)c2F)cc1 (centres undefined)
TGI (U251 CNS): 48.8 µM
TGI (SK-MEL-28 melanoma): 36.8 µM
TGI (MDA-N): 35.7 µM
TGI (HS 578T breast): 50.8 µM
TGI (MCF7 breast): 32.7 µM
TGI (CCRF-CEM leukemia): 93.6 µM
TGI (A549 NSCLC): 72.8 µM
TGI (T-47D breast): 78.3 µM
TGI (M14 melanoma): 61.5 µM

CC1=C(C(=O)NNC(=O)Cc2ccccc2)CC(C(=O)NNC(=O)Cc2ccccc2)=C(C)N1
TGI (U251 CNS): > 100 µM
TGI (SK-MEL-28 melanoma): > 100 µM
TGI (MDA-N): > 100 µM
TGI (MCF7 breast): > 100 µM
TGI (A549 NSCLC): > 100 µM
TGI (RXF 393 renal): > 100 µM
TGI (T-47D breast): > 100 µM
TGI (M14 melanoma): > 100 µM

Cc1nc2cn3c(c2c(=O)[nH]1)CCCCC3
TGI (U251 CNS): > 100 µM
TGI (SK-MEL-28 melanoma): > 100 µM
TGI (HS 578T breast): > 100 µM
TGI (MCF7 breast): > 100 µM
TGI (CCRF-CEM leukemia): > 100 µM
TGI (RXF 393 renal): > 100 µM
TGI (T-47D breast): > 100 µM
TGI (M14 melanoma): > 100 µM

COc1c(C)c(C/C=C(\C)CC/C=C(\C)CC/C=C(\C)CCC=C(C)C)c(OC)c(OC)c1OC
TGI (U251 CNS): > 100 µM
TGI (MDA-N): > 100 µM
TGI (HS 578T breast): > 100 µM
TGI (MCF7 breast): > 100 µM
TGI (CCRF-CEM leukemia): > 100 µM
TGI (A549 NSCLC): > 100 µM
TGI (RXF 393 renal): > 100 µM
TGI (M14 melanoma): > 100 µM

OC1(c2ccccc2)CC2CCC(C1)N2CCCC(O)(c1ccccc1)c1ccccc1 (centres undefined)
TGI (U251 CNS): 28.7 µM
TGI (SK-MEL-28 melanoma): 32.9 µM
TGI (HS 578T breast): 18.7 µM
TGI (MCF7 breast): 33.3 µM
TGI (CCRF-CEM leukemia): 30.8 µM
TGI (A549 NSCLC): 34.4 µM
TGI (RXF 393 renal): 24.3 µM
TGI (T-47D breast): 50.3 µM
TGI (M14 melanoma): 30.8 µM

Oc1cc(O)c2c(c1)O[C@H](c1ccc(O)c(O)c1)[C@@H](O)C2
TGI (U251 CNS): > 100 µM
TGI (SK-MEL-28 melanoma): > 100 µM
TGI (MDA-N): > 100 µM
TGI (HS 578T breast): > 100 µM
TGI (MCF7 breast): > 100 µM
TGI (CCRF-CEM leukemia): > 100 µM
TGI (A549 NSCLC): > 100 µM
TGI (T-47D breast): > 100 µM
TGI (M14 melanoma): > 100 µM

N#C/C(=C\c1ccc(O)c(O)c1)c1c(C#N)c(N)nn1-c1ccccc1
TGI (U251 CNS): 20.6 µM
TGI (SK-MEL-28 melanoma): > 100 µM
TGI (CCRF-CEM leukemia): 37.5 µM
TGI (A549 NSCLC): 39.3 µM
TGI (M14 melanoma): 31.9 µM

NC(Cc1ccc(O)cn1)C(=O)NC(C(=O)O)c1ccccc1 (centres undefined)
TGI (U251 CNS): > 100 µM
TGI (SK-MEL-28 melanoma): > 100 µM
TGI (MDA-N): > 100 µM
TGI (HS 578T breast): > 100 µM
TGI (MCF7 breast): > 100 µM
TGI (CCRF-CEM leukemia): > 100 µM
TGI (A549 NSCLC): > 100 µM
TGI (RXF 393 renal): > 100 µM
